Results published in US20200017495A1, “NOVEL HETEROCYCLIC COMPOUNDS AND THEIR USE IN PREVENTING OR TREATING BACTERIAL INFECTIONS” (priority 2017, published 2020).
Like-named read-outs stand apart in the source and are kept apart here.

Columns and labels:
Assay in all cases: MIC of compounds alone and combined with antibacterials, broth microdilution (CLSI)
Type in all cases: cell-based
[1] = system: Enterobacter cloacae (ECL) isolates; conditions: Enterobacter cloacae
Method in brief: (§1)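 Broth microdilution in cation-adjusted Mueller-Hinton broth, inoculum 5.10^5 CFU/mL, 16-20 h at 35° C in ambient air, on genotyped isolates. Compound MIC, alone or with an antibacterial, taken visually as lowest concentration preventing growth; antibacterial MIC determined at each compound concentration.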

[2] = system: Serratia marcescens (SMA) isolates; conditions: Serratia marcescens
Method in brief: as §1

[3] = system: Providencia rettgeri (PRE) isolates; conditions: Providencia rettgeri
Method in brief: as §1

[4] = system: Klebsiella oxytoca (KOX) isolates; conditions: Klebsiella oxytoca
Method in brief: as §1

[5] = system: Providencia stuartii (PST) isolates; conditions: Providencia stuartii, read-out: MIC
Method in brief: (§2)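 Genotyped isolates; cpd ± antibacterial, DMSO spots; ca-MHB, 5.10^5 CFU/mL; 35° C, 16-20 h, air; visual MIC; ATB MIC per cpd concentration.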

[6] = system: Salmonella typhimurium (STY) isolates; conditions: Salmonella enterica, TYPHIMURIUM
Method in brief: as §2

## C=CC1=C(C(=O)O)N2C(=O)[C@@H](NC(=O)/C(=N\O)c3csc(N)n3)[C@H]2SC1 [CDR, Cefdinir]
[1]; strain ECL 2185D, genotype OXA-163
  MIC: > 256 µg/mL
[1]; strain ECL 190310, genotype AmpC
  MIC: > 256 µg/mL
[1]; strain ECL 190408, genotype TEM-1, CTX-M-15, OXA-1
  MIC: > 256 µg/mL
[1]; strain ECL 200138, genotype AmpC
  MIC: > 256 µg/mL
[1]; strain ECL 200322, genotype TEM-1, CTX-M-15, OXA-1
  MIC: > 256 µg/mL
[1]; strain ECL 260033, genotype AmpC
  MIC: > 256 µg/mL
[1]; strain ECL 260253, genotype TEM-1, KPC-3
  MIC: > 256 µg/mL
[1]; strain ECL 260323, genotype AmpC, read-out: MIC
  MIC: 256 µg/mL
[1]; strain ECL 260508, genotype TEM-1, CTX-M-15
  MIC: > 256 µg/mL
[1]; strain ECL NEM146383, genotype AmpC
  MIC: > 256 µg/mL
[1]; strain ECL P99, genotype AmpC
  MIC: > 256 µg/mL
[1]; strain ECL UFR12, genotype CTX-M-9, OXA-48
  MIC: > 256 µg/mL
[1]; strain ECL UFR13, genotype TEM-1, SHV-12, CTX-M-9, OXA-48
  MIC: > 256 µg/mL
[1]; strain ECL UFR14, genotype TEM-1, SHV-12, CTX-M-15, DHA-1, OXA-1, OXA-48
  MIC: > 256 µg/mL
[1]; strain ECL UFR60, genotype TEM-1, CTX-M-15, KPC-2
  MIC: > 256 µg/mL
[1]; strain ECL UFR70, genotype TEM-1, CTX-M-15, CMY-2, OXA-1, Porin loss
  MIC: > 256 µg/mL
[1]; strain ECL UFR84, genotype TEM-1, AmpC, OXA-1
  MIC: > 256 µg/mL
[1]; strain ECL UFR85, genotype TEM-1, CTX-M-15, AmpC
  MIC: > 256 µg/mL
[1]; strain ECL UFR194, genotype OXA-48
  MIC: > 256 µg/mL
[1]; strain ECL UFR195, genotype TEM-1, CTX-M-15, OXA-1, OXA-48
  MIC: > 256 µg/mL
[1]; strain ECL UFR196, genotype TEM-1, CTX-M-15, OXA-1, OXA-48
  MIC: > 256 µg/mL
[1]; strain ECL UFR197, genotype TEM-1, CTX-M-15, OXA-1, OXA-48
  MIC: > 256 µg/mL
[1]; strain ECL UFR198, genotype TEM-1, SHV-12, CTX-M-15, DHA-1, OXA-1, OXA-48
  MIC: > 256 µg/mL
[1]; strain ECL UFR200, genotype TEM-1, SHV-12, KPC-2
  MIC: > 256 µg/mL
[2]
  MIC: > 256 µg/mL
[2]; strain SMA UFR134, genotype TEM-1, BES-1, read-out: MIC
  MIC: 256 µg/mL
[2]; strain SMA UFR137, genotype SME-1, read-out: MIC
  MIC: 4 µg/mL
[2]; strain SMA UFR138, genotype SME-1, read-out: MIC
  MIC: 8 µg/mL
[2]; strain SMA UFR139, genotype SME-2, read-out: MIC
  MIC: 64 µg/mL
[2]; strain SMA UFR239, genotype ESAC, read-out: MIC
  MIC: 128 µg/mL
[3]; strain PRE UFR99, genotype OXA-1, OXA-181
  MIC: > 256 µg/mL
[3]; strain PRE UFR236, genotype TEM-1, OXA-48
  MIC: > 256 µg/mL
[4]
  MIC: > 256 µg/mL
[5]; strain PST UFR94, genotype CTX-M-14
  MIC: 64 µg/mL
[5]; strain PST UFR95, genotype TEM-24
  MIC: 32 µg/mL
[5]; strain PST UFR235, genotype VEB-1
  MIC: 256 µg/mL
[6]
  MIC: 0.5 µg/mL
